Assays:
Assay type in all cases: in vivo
[1] = tested on: Bemisia tabaci (Cotton White Fly); experiment: Bemisia tabaci (cotton white fly), sprayed cotton leaf discs; settings: foliar, 144 h, application rate of 200 ppm, adult white flies on cotton leaf discs, 6 days after incubation
Experimental: Example B1: Bemisia tabaci (Cotton White Fly)
Cotton leaf discs were placed on agar in 24-well microtiter plates and sprayed with aqueous test solutions prepared from 10′000 ppm DMSO stock solutions. After drying the leaf discs were infested with adult white flies. The samples were checked for mortality 6 days after incubation.

[2] = tested on: Diabrotica balteata (Corn Root Worm); experiment: Diabrotica balteata (corn root worm), sprayed maize sprouts; settings: 96 h, application rate of 200 ppm, L2 larvae on maize sprouts, 4 days after infestation
Experimental: Example B2: Diabrotica balteata (Corn Root Worm)
Maize sprouts, placed on an agar layer in 24-well microtiter plates were treated with aqueous test solutions prepared from 10′000 ppm DMSO stock solutions by spraying. After drying, the plates were infested with L2 larvae (6 to 10 per well). The samples were assessed for mortality and growth inhibition in comparison to untreated samples 4 days after infestation.

[3] = tested on: Spodoptera littoralis (Egyqptian Cotton Leaf Worm); experiment: Spodoptera littoralis (Egyptian cotton leaf worm), compound in agar taken up by lettuce roots; settings: 144 h, test rate of 12.5 ppm, uptake by lettuce roots from agar, 6 days after infestation, read-out: effect in at least one of the three categories (mortality, anti-feedancy, or growth inhibition)
Description: Example B8: Spodoptera littoralis (Egyqptian Cotton Leaf Worm)
Test compounds were applied by pipette from 10′000 ppm DMSO stock solutions into 24-well plates and mixed with agar. Lettuce seeds were placed on the agar and the multi well plate was closed by another plate which contains also agar. After 7 days the roots have absorbed the compound and the lettuce has grown into the lid plate. The lettuce leafs were now cut off into the lid plate. Spodoptera eggs were pipetted through a plastic stencil on a humid gel blotting paper and the plate closed with it. The samples were assessed for mortality, anti-feedant effect and growth inhibition in comparison to untreated samples 6 days after infestation.
The following compounds gave an effect of at least 80% in at least one of the three categories (mortality, anti-feedancy, or growth inhibition) at a test rate of 12.5 ppm: […]

[4] = tested on: Myzus persicae (Green Peach Aphid); experiment: Myzus persicae (green peach aphid), sprayed sunflower leaf discs; settings: foliar, 144 h, application rate of 200 ppm, mixed ages on sunflower leaf discs, 6 days after infestation
Experimental: Example B4: Myzus persicae (Green Peach Aphid)
(§1) Sunflower leaf discs were placed on agar in a 24-well microtiter plate and sprayed with aqueous test solutions prepared from 10′000 ppm DMSO stock solutions. After drying, the leaf discs were infested with an aphid population of mixed ages. The samples were assessed for mortality 6 days after infestation.

[5] = tested on: Spodoptera littoralis (Egyqptian Cotton Leaf Worm); experiment: Spodoptera littoralis (Egyptian cotton leaf worm), sprayed cotton leaf discs; settings: foliar, 72 h, application rate of 200 ppm, L1 larvae on cotton leaf discs, 3 days after infestation
Method in brief: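 Cotton leaf discs on agar were sprayed with aqueous dilutions made from 10′000 ppm DMSO stocks, then infested after drying with five L1 larvae. Mortality, anti-feedant effect and growth inhibition were scored against untreated discs 3 days after infestation. Control means at least one of these exceeds the untreated sample.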

[6] = tested on: Euschistus heros (Neotropical Brown Stink Bug); experiment: Euschistus heros (neotropical brown stink bug), sprayed soybean leaf; settings: 120 h, application rate of 200 ppm, N-2 nymphs on soybean leaf, 5 days after infestation
Experimental: Example B3: Euschistus heros (Neotropical Brown Stink Bug)
Soybean leaf on agar in 24-well microtiter plates were sprayed with aqueous test solutions prepared from 10′000 ppm DMSO stock solutions. After drying the leaf were infested with N-2 nymphs. The samples were assessed for mortality in comparison to untreated samples 5 days after infestation.

[7] = tested on: Plutella xylostella (Diamond Back Moth); experiment: Plutella xylostella (diamond back moth), treated artificial diet; settings: 120 h, application rate of 200 ppm, L2 larvae on artificial diet, 5 days after infestation, read-out: effect in at least one of the two categories (mortality or growth inhibition)
Method in brief: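 Artificial diet treated with aqueous dilutions of DMSO stocks (10′000 ppm stock), dried, then infested with 10-15 L2 larvae per well. Mortality and growth inhibition assessed versus untreated controls 5 days after infestation.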

[8] = tested on: Aedes aegypti (Yellow Fever Mosquito); experiment: Activity against Aedes aegypti (yellow fever mosquito), dried deposits in tissue culture plates; settings: application rate of 200 ppm in ethanol, adult females, after 48 h
Experimental: Example B12: Activity Against Aedes aegypti (Yellow Fever Mosquito)
Test solutions, at an application rate of 200 ppm in ethanol, were applied to 12-well tissue culture plates. Once the deposits were dry, five, two to five days old adult female Aedes aegypti were added to each well, and sustained with a 10% sucrose solution in a cotton wool plug. Assessment of knockdown was made one hour after introduction, and mortality was assessed at 24 and 48 hours after introduction.
The following compounds gave at least 80% control of Aedes aegypti after 48 h: […]

[9] = tested on: Myzus persicae (Green Peach Aphid); experiment: Myzus persicae (green peach aphid), roots of pea seedlings in test solution; settings: 144 h, test rate of 24 ppm, roots of infested pea seedlings in test solution, 6 days
Experimental: Example B5: Myzus persicae (Green Peach Aphid)
Roots of pea seedlings infested with an aphid population of mixed ages were placed directly in the aqueous test solutions prepared from 10′000 DMSO stock solutions. The samples were assessed for mortality 6 days after placing seedlings in test solutions.

[10] = tested on: Frankliniella occidentalis (Western Flower Thrips); experiment: Frankliniella occidentalis (western flower thrips), sprayed sunflower leaf discs; settings: foliar, 168 h, application rate of 200 ppm, mixed ages on sunflower leaf discs, 7 days after infestation
Experimental: Example B11: Frankliniella occidentalis (Western Flower Thrips)
as §1, with “in” for “in a”, “plates” for “plate”, “[…]” for “10′000 ppm”, “drying” for “drying,”, “a Frankliniella” for “an aphid”, “7” for “6”

CCS(=O)(=O)c1cc(-n2ccc(C(F)(F)F)n2)cnc1-c1nc2cc(C(F)(F)F)ncc2n1C [Compound P2, 2-[3-ethylsulfonyl-5-[3-(trifluoromethyl)pyrazol-1-yl]-2-pyridyl]-3-methyl-6-(trifluoromethyl)imidazo[4,5-c]pyridine]
≥ 80%: mortality at 200 ppm [1] | mortality at 200 ppm [2] | percent control (mortality, anti-feedancy or growth inhibition) at 12.5 ppm [3] | mortality at 200 ppm [4] | percent control (mortality, anti-feedant effect or growth inhibition) at 200 ppm [5] | mortality at 200 ppm [6] | percent effect (mortality or growth inhibition) at 200 ppm [7] | pest or weed control at 200 ppm [8]

CCS(=O)(=O)c1cc(-c2ccc(C(F)(F)F)nc2)cnc1-c1nc2cc(C(F)(F)F)ncc2n1C [Compound P5]
≥ 80%: mortality at 200 ppm [1] | mortality at 200 ppm [2] | percent control (mortality, anti-feedancy or growth inhibition) at 12.5 ppm [3] | mortality at 200 ppm [4] | percent control (mortality, anti-feedant effect or growth inhibition) at 200 ppm [5] | mortality at 24 ppm [9] | mortality at 200 ppm [6] | percent effect (mortality or growth inhibition) at 200 ppm [7] | mortality at 200 ppm [10]

CCS(=O)(=O)c1cc(-c2ccccn2)cnc1-c1nc2cc(C(F)(F)F)ncc2n1C [Compound P18]
≥ 80%: percent control (mortality, anti-feedancy or growth inhibition) at 12.5 ppm [3] | mortality at 200 ppm [4] | percent control (mortality, anti-feedant effect or growth inhibition) at 200 ppm [5] | mortality at 24 ppm [9] | mortality at 200 ppm [6] | percent effect (mortality or growth inhibition) at 200 ppm [7] | mortality at 200 ppm [10] | pest or weed control at 200 ppm [8]

CCS(=O)(=O)c1cc(-c2ccc(C(F)(F)F)cn2)cnc1-c1nc2cc(C(F)(F)F)ncc2n1C [Compound P19]
≥ 80%: mortality at 200 ppm [1] | mortality at 200 ppm [2] | percent control (mortality, anti-feedancy or growth inhibition) at 12.5 ppm [3] | mortality at 200 ppm [4] | percent control (mortality, anti-feedant effect or growth inhibition) at 200 ppm [5] | mortality at 200 ppm [6] | percent effect (mortality or growth inhibition) at 200 ppm [7] | mortality at 200 ppm [10] | pest or weed control at 200 ppm [8]

CCS(=O)(=O)c1cc(-c2cccc[n+]2O)cnc1-c1nc2cc(C(F)(F)F)ncc2n1C [Compound P56]
≥ 80%: mortality at 200 ppm [2] | percent control (mortality, anti-feedancy or growth inhibition) at 12.5 ppm [3] | mortality at 200 ppm [4] | percent control (mortality, anti-feedant effect or growth inhibition) at 200 ppm [5] | mortality at 24 ppm [9] | mortality at 200 ppm [6] | percent effect (mortality or growth inhibition) at 200 ppm [7] | mortality at 200 ppm [10]

CCS(=O)(=O)c1cc(-c2ccnc(F)c2)cnc1-c1nc2cc(C(F)(F)F)ncc2n1C [Compound P70]
≥ 80%: mortality at 200 ppm [1] | mortality at 200 ppm [2] | percent control (mortality, anti-feedancy or growth inhibition) at 12.5 ppm [3] | mortality at 200 ppm [4] | percent control (mortality, anti-feedant effect or growth inhibition) at 200 ppm [5] | mortality at 24 ppm [9] | mortality at 200 ppm [6] | percent effect (mortality or growth inhibition) at 200 ppm [7] | mortality at 200 ppm [10]

CCS(=O)(=O)c1cc(-n2ccc(Cl)n2)cnc1-c1nc2cc(C(F)(F)F)ncc2n1C [Compound P88]
≥ 80%: mortality at 200 ppm [1] | mortality at 200 ppm [2] | percent control (mortality, anti-feedancy or growth inhibition) at 12.5 ppm [3] | mortality at 200 ppm [4] | percent control (mortality, anti-feedant effect or growth inhibition) at 200 ppm [5] | mortality at 200 ppm [6] | percent effect (mortality or growth inhibition) at 200 ppm [7] | pest or weed control at 200 ppm [8]

CCS(=O)(=O)c1cc(-c2ncccn2)ccc1-c1nc2cc(C(F)(F)F)ncc2n1C [Compound P89]
≥ 80%: mortality at 200 ppm [2] | percent control (mortality, anti-feedancy or growth inhibition) at 12.5 ppm [3] | mortality at 200 ppm [4] | percent control (mortality, anti-feedant effect or growth inhibition) at 200 ppm [5] | mortality at 200 ppm [6] | percent effect (mortality or growth inhibition) at 200 ppm [7] | mortality at 200 ppm [10] | pest or weed control at 200 ppm [8]

CCS(=O)(=O)c1cc(-n2ccc(C(F)(F)F)n2)ccc1-c1nc2cc(C(F)(F)F)ncc2n1C [Compound P90]
≥ 80%: mortality at 200 ppm [1] | mortality at 200 ppm [2] | percent control (mortality, anti-feedancy or growth inhibition) at 12.5 ppm [3] | mortality at 200 ppm [4] | percent control (mortality, anti-feedant effect or growth inhibition) at 200 ppm [5] | mortality at 200 ppm [6] | percent effect (mortality or growth inhibition) at 200 ppm [7] | pest or weed control at 200 ppm [8]

CCS(=O)(=O)c1cc(-c2cc(Cl)ccn2)cnc1-c1nc2cc(C(F)(F)F)ncc2n1C [Compound P92]
≥ 80%: mortality at 200 ppm [2] | percent control (mortality, anti-feedancy or growth inhibition) at 12.5 ppm [3] | mortality at 200 ppm [4] | percent control (mortality, anti-feedant effect or growth inhibition) at 200 ppm [5] | mortality at 200 ppm [6] | percent effect (mortality or growth inhibition) at 200 ppm [7] | mortality at 200 ppm [10] | pest or weed control at 200 ppm [8]

CCS(=O)(=O)c1cc(-c2cc(C#N)ccn2)cnc1-c1nc2cc(C(F)(F)F)ncc2n1C [Compound P93]
≥ 80%: mortality at 200 ppm [2] | percent control (mortality, anti-feedancy or growth inhibition) at 12.5 ppm [3] | mortality at 200 ppm [4] | percent control (mortality, anti-feedant effect or growth inhibition) at 200 ppm [5] | mortality at 200 ppm [6] | percent effect (mortality or growth inhibition) at 200 ppm [7] | mortality at 200 ppm [10] | pest or weed control at 200 ppm [8]

CCS(=O)(=O)c1cc(-c2ccc(Cl)nc2)cnc1-c1nc2cc(C(F)(F)F)ncc2n1C [Compound P96]
≥ 80%: mortality at 200 ppm [1] | mortality at 200 ppm [2] | percent control (mortality, anti-feedancy or growth inhibition) at 12.5 ppm [3] | mortality at 200 ppm [4] | percent control (mortality, anti-feedant effect or growth inhibition) at 200 ppm [5] | mortality at 200 ppm [6] | percent effect (mortality or growth inhibition) at 200 ppm [7] | mortality at 200 ppm [10]

CCS(=O)(=O)c1cc(-c2nccc(C#N)n2)cnc1-c1nc2cc(C(F)(F)F)ncc2n1C [Compound P101]
≥ 80%: mortality at 200 ppm [2] | mortality at 200 ppm [4] | percent control (mortality, anti-feedant effect or growth inhibition) at 200 ppm [5] | mortality at 200 ppm [6] | percent effect (mortality or growth inhibition) at 200 ppm [7] | pest or weed control at 200 ppm [8]

CCS(=O)(=O)c1cc(-c2nccc(OC)n2)cnc1-c1nc2cc(C(F)(F)F)ncc2n1C [Compound P104]
≥ 80%: mortality at 200 ppm [2] | percent control (mortality, anti-feedancy or growth inhibition) at 12.5 ppm [3] | mortality at 200 ppm [4] | percent control (mortality, anti-feedant effect or growth inhibition) at 200 ppm [5] | mortality at 200 ppm [6] | percent effect (mortality or growth inhibition) at 200 ppm [7] | mortality at 200 ppm [10]

CCS(=O)(=O)c1cc(-c2ccnc(C(F)(F)F)n2)cnc1-c1nc2cc(C(F)(F)F)ncc2n1C [Compound P108]
≥ 80%: mortality at 200 ppm [1] | mortality at 200 ppm [2] | percent control (mortality, anti-feedancy or growth inhibition) at 12.5 ppm [3] | mortality at 200 ppm [4] | percent control (mortality, anti-feedant effect or growth inhibition) at 200 ppm [5] | mortality at 200 ppm [6] | percent effect (mortality or growth inhibition) at 200 ppm [7] | pest or weed control at 200 ppm [8]
